Consider 23 molecules from patent US9527838B2, “2-pyridinecarboxamide derivatives, compositions containing such compounds, and methods of treatment” (priority 2012, dated 2016).

The target in this test is Recombinant human liver glucokinase (Homo sapiens (Human), UniProt P35557). As to the kind of experiment: Glucokinase activation assay (G6PDH-coupled, Thio-NADH absorbance at 405 nm). The test is classed as biochemical. As to conditions: for EC50: 2.5 mM Glu, 30° C. An excerpt:
The glucokinase activity can, for instance, be determined without directly measuring glucose-6-phosphate by measuring the amount of Thio-NADH generated during the production of phosphogluconolactone from glucose-6-phosphate by a reporter enzyme glucose-6-phosphate dehydrogenase.
To test the exemplified compounds, the following assay was employed. Recombinant human liver glucokinase was expressed as a FLAG fusion protein in E. coli, and purified on […] M2 AFFINITY GEL (Sigma). The assay was carried out at 30° C. in a 96-well plate. In the plate was distributed 69 μl each of assay buffer (25 mM Hepes Buffer: pH=7.2, 2 mM MgCl2, 1 mM ATP, 0.5 mM TNAD, 1 mM dithiothreitol), to which was added 1 μl of a DMSO solution of the compound or DMSO as control. Then, 20 μl of pre-ice-cooled enzyme mixture (FLAG-GK, 20 U/ml G6PDH) was distributed thereto, to which was added 10 μl of 25 mM glucose as substrate to initiate the reaction (final glucose concentration=2.5 mM). After starting the reaction, the absorbance at 405 nm was measured every 30 seconds for 10 minutes to evaluate the compound based on the initial increase for 5 minutes. FLAG-GK was added so that the increase of absorbance after 5 minutes fell between 0.05 to 0.1 in the presence of 1% DMSO.
The OD values of the respective compounds were measured in the respective concentrations, wherein the OD value of DMSO as control is regarded as 100%.

Sequence of Recombinant human liver glucokinase (P35557 other isoform, or with tags, fused parts or gaps): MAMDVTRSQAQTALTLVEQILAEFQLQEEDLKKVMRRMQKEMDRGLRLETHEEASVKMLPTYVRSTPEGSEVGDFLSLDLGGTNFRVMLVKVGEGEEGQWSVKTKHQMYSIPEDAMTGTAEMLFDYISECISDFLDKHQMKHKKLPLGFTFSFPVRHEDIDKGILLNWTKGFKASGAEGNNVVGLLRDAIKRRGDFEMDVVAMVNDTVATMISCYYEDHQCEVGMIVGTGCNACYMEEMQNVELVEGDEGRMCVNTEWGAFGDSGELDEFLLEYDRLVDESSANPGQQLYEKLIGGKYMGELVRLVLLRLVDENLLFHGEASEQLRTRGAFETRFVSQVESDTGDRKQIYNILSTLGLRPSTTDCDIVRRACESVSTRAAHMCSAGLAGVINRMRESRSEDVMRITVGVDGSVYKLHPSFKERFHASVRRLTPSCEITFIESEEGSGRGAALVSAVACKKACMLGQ

By Emax is commonly meant the size of the effect at its maximum, as opposed to the concentration needed. The term EC50 denotes the concentration at which the effect is half-maximal. As to `CCOC(=O)Cc1nc(NC(=O)c2nc(Sc3nncn3C)ccc2Sc2ccc(F)cc2)sc1Cl` [Example 24, Ethyl {5-chloro-2-[({3-[(4-fluorophenyl)sulfanyl]-6-[(4-methyl-4H-1,2,4-triazol-3-yl)sulfanyl]pyridin-2-yl}carbonyl)amino]-1,3-thiazol-4-yl}acetate], the maximum response (Emax) was 378% and the EC50 amounted to 8 nM.

With `O=C(O)CCc1cnc(NC(=O)c2nc(Sc3ccccn3)ccc2Sc2ccc(F)cc2)s1` [Example 40, 3-{2[({3-[(4-Fluorophenyl)sulfanyl]-6-(pyridin-2-ylsulfanyl)pyridin-2-yl}carbonyl)amino]-1,3-thiazol-5-yl}propanoic acid], the maximal response (Emax) came to 658% and the EC50 was 428 nM.

`Cn1cnnc1Sc1ccc(Sc2ccc(C(F)(F)F)cc2)c(C(=O)Nc2nc(CC(=O)O)c(Cl)s2)n1` [Example 42, (5-Chloro-2-{[(6-[(4-methyl-4H-1,2,4-triazol-3-yl)sulfanyl]-3-{[4-(trifluoromethyl)phenyl]sulfanyl}pyridin-2-yl)carbonyl]amino}-1,3-thiazol-4-yl)acetic acid]: the Emax was determined as 466% and the concentration giving a half-maximal response (EC50) is 44 nM.

With `CCOC(=O)CSc1cnc(NC(=O)c2nc(Sc3ccc(F)cc3)ccc2Sc2ccc(F)cc2)s1` [Example 27], the Emax is 182%.

Regarding `Cn1cnnc1Sc1ccc(Sc2ccc(Cl)c(Cl)c2)c(C(=O)Nc2ncc(SCC(=O)O)s2)n1` [Example 52, ({2-[({3-[(3,4-Dichlorophenyl)sulfanyl]-6-[(4-methyl-4H-1,2,4-triazol-3-yl)sulfanyl]pyridin-2-yl}carbonyl)amino]-1,3-thiazol-5-yl}sulfanyl)acetic acid], the Emax is 431% and the EC50 stood at 16.6 nM.

As for `CCOC(=O)Cc1nc(NC(=O)c2nc(Sc3ccccn3)ccc2Sc2ccc(F)cc2)sc1Cl` [Example 31, Ethyl {5-chloro-2-[({3-[(4-fluorophenyl)sulfanyl]-6-(pyridin-2-ylsulfanyl)pyridin-2-yl}carbonyl)amino]-1,3-thiazol-4-yl}acetate], the Emax worked out at 436% and the EC50 came to 127 nM.

As for `COc1ccc(Sc2ccc(Sc3nncn3C)nc2C(=O)Nc2ncc(CCC(=O)O)s2)cc1` [Example 8, 3-{2-[({3-[(4-Methoxyphenyl)sulfanyl]-6-[(4-methyl-4H-1,2,4-triazol-3-yl)sulfanyl]pyridin-2-yl}carbonyl)amino]-1,3-thiazol-5-yl}propanoic acid], the Emax is 626% and the EC50 was found to be 58.7 nM.

As for `O=C(O)CSc1cnc(NC(=O)c2nc(Sc3ccccn3)ccc2Sc2ccc(F)cc2)s1` [Example 36, ({2-[({3-[(4-Fluorophenyl)sulfanyl]-6-(pyridin-2-ylsulfanyl)pyridin-2-yl}carbonyl)amino]-1,3-thiazol-5-yl}sulfanyl)acetic acid], the Emax was determined as 514% and the EC50 was determined as 34 nM.

With `CCOC(=O)CSc1cnc(NC(=O)c2nc(Sc3nncn3C)ccc2Sc2ccc(OC)cc2)s1` [Example 1, Ethyl ({2-[({3-[(4-methoxyphenyl)sulfanyl]-6-[(4-methyl-4H-1,2,4-triazol-3-yl)sulfanyl]pyridin-2-yl}carbonyl)amino]-1,3-thiazol-5-yl}sulfanyl)acetate], the Emax came out at 471% and the EC50 was found to be 7.5 nM.

On to `COc1ccc(Sc2ccc(Sc3ccccn3)nc2C(=O)Nc2nc(CC(=O)O)cs2)cc1` [Example 17, {2-[({3-[(4-Methoxyphenyl)sulfanyl]-6-(pyridin-2-ylsulfanyl)pyridin-2-yl}carbonyl)amino]-1,3-thiazol-4-yl}acetic acid], for which the Emax is 698% and the EC50 came to 106 nM.

For `CCOC(=O)Cc1csc(NC(=O)c2nc(Sc3nncn3C)ccc2Sc2ccc(C(F)(F)F)cc2)n1` [Example 46, Ethyl (2-{[(6-[(4-methyl-4H-1,2,4-triazol-3-yl)sulfanyl]-3-{[4-(trifluoromethyl)phenyl]sulfanyl}pyridin-2-yl)carbonyl]amino}-1,3-thiazol-4-yl)acetate], the Emax was 466% and the EC50 worked out at 66.3 nM.

For the molecule `COc1ccc(Sc2ccc(Sc3nncn3C)nc2C(=O)Nc2ncc(SC(C)(C)C(=O)O)s2)cc1` [Example 4, 2-({2-[({3-[(4-methoxyphenyl)sulfanyl]-6-[(4-methyl-4H-1,2,4-triazol-3-yl)sulfanyl]pyridin-2-yl}carbonyl)amino]-1,3-thiazol-5-yl}sulfanyl)-2-methylpropanoic acid], the Emax came to 417% and the EC50 came to 65.1 nM.

Regarding `CCOC(=O)CSc1cnc(NC(=O)c2nc(Sc3nncn3C)ccc2Sc2ccc(C(F)(F)F)cc2)s1` [Example 43, Ethyl [(2-{[(6-[(4-methyl-4H-1,2,4-triazol-3-yl)sulfanyl]-3-{[4-(trifluoromethyl)phenyl]sulfanyl}pyridin-2-yl)carbonyl]amino}-1,3-thiazol-5-yl)sulfanyl]acetate], the Emax worked out at 384% and the EC50 stood at 28.3 nM.

For the molecule `O=C(O)Cc1nc(NC(=O)c2nc(Sc3ccccn3)ccc2Sc2ccc(F)cc2)sc1Cl` [Example 32, {5-Chloro-2-[({3-[(4-fluorophenyl)sulfanyl]-6-(pyridin-2-ylsulfanyl)pyridin-2-yl}carbonyl)amino]-1,3-thiazol-4-yl}acetic acid], the Emax came out at 643% and the EC50 was determined as 16.1 nM.

With `COc1ccc(Sc2ccc(Sc3nncn3C)nc2C(=O)Nc2ncc(SCC(=O)O)s2)cc1` [Example 2, ({2-[({3-[(4-methoxyphenyl)sulfanyl]-6-[(4-methyl-4H-1,2,4-triazol-3-yl)sulfanyl]pyridin-2-yl}carbonyl)amino]-1,3-thiazol-5-yl}sulfanyl)acetic acid], the Emax worked out at 446% and the EC50 was 56.8 nM.

For the molecule `Cn1cnnc1Sc1ccc(Sc2ccc(F)cc2)c(C(=O)Nc2ncc(SCC(C)(C)C(=O)O)s2)n1` [Example 21, 3-({2-[({3-[(4-Fluorophenyl)sulfanyl]-6-[(4-methyl-4H-1,2,4-triazol-3-yl)sulfanyl]pyridin-2-yl}carbonyl)amino]-1,3-thiazol-5-yl}sulfanyl)-2,2-dimethylpropanoic acid], the Emax came to 473% and the 50% effective concentration (EC50) amounted to 17.2 nM.

As to `CCOC(=O)C(C)(C)CSc1cnc(NC(=O)c2nc(Sc3nncn3C)ccc2Sc2ccc(OC)cc2)s1` [Example 5, Ethyl 3-({2-[({3-[(4-methoxyphenyl)sulfanyl]-6-[(4-methyl-4H-1,2,4-triazol-3-yl)sulfanyl]pyridin-2-yl}carbonyl)amino]-1,3-thiazol-5-yl}sulfanyl)-2,2-dimethylpropanoate], the Emax amounted to 490% and the EC50 came out at 14.3 nM.

As for `CCOC(=O)Cc1csc(NC(=O)c2nc(Sc3ccccn3)ccc2Sc2ccc(F)cc2)n1` [Example 33, Ethyl {2-[({3-[(4-fluorophenyl)sulfanyl]-6-(pyridin-2-ylsulfanyl)pyridin-2-yl}carbonyl)amino]-1,3-thiazol-4-yl}acetate], the Emax came out at 456% and the EC50 stood at 4660 nM.

For `CCOP(=O)(Cc1cnc(NC(=O)c2nc(Sc3nncn3C)ccc2Sc2ccc(C(F)(F)F)cc2)s1)OCC` [Example 45, Diethyl [(2-{[(6-[(4-methyl-4H-1,2,4-triazol-3-yl)sulfanyl]-3-{[4-(trifluoromethyl)phenyl]sulfanyl}pyridin-2-yl)carbonyl]amino}-1,3-thiazol-5-yl)methyl]phosphonate], the Emax was 273% and the EC50 came out at 350 nM.

`COc1ccc(Sc2ccc(Sc3ccccn3)nc2C(=O)Nc2ncc(SCC(=O)O)s2)cc1` [Example 11, ({2-[({3-[(4-Methoxyphenyl)sulfanyl]-6-(pyridin-2-ylsulfanyl)pyridin-2-yl}carbonyl)amino]-1,3-thiazol-5-yl}sulfanyl)acetic acid]: the maximal response (Emax) is 509% and the EC50 is 10.9 nM.

In the case of `COc1ccc(Sc2ccc(Sc3nncn3C)nc2C(=O)Nc2ccc(CC(N)=O)cc2)cc1` [Example 9, N-[4-(2-Amino-2-oxoethyl)phenyl]-3-[(4-methoxyphenyl)sulfanyl]-6-[(4-methyl-4H-1,2,4-triazol-3-yl)sulfanyl]pyridine-2-carboxamide], the Emax was 191% and the EC50 amounted to 1890 nM.

Take `Cn1cnnc1Sc1ccc(Sc2ccc(C(F)(F)F)cc2)c(C(=O)Nc2nc(CC(=O)O)cs2)n1` [Example 47, (2-{[(6-[(4-Methyl-4H-1,2,4-triazol-3-yl)sulfanyl]-3-{[4-(trifluoromethyl)phenyl]sulfanyl}pyridin-2-yl)carbonyl]amino}-1,3-thiazol-4-yl)acetic acid]: the Emax was 633% and the EC50 was determined as 222 nM.

Regarding `COC(=O)CCc1cnc(NC(=O)c2nc(Sc3nncn3C)ccc2Sc2ccc(OC)cc2)s1` [Example 7, Methyl 3-{2-[({3-[(4-methoxyphenyl)sulfanyl]-6-[(4-methyl-4H-1,2,4-triazol-3-yl)sulfanyl]pyridin-2-yl}carbonyl)amino]-1,3-thiazol-5-yl}propanoate], the Emax was determined as 550% and the EC50 came to 23.4 nM.
